Assay results: publication PMC4055595, “Pharmacokinetic Compatibility of Ginsenosides and Schisandra Lignans in Shengmai-san: From the Perspective of P-Glycoprotein” (PLoS ONE, 2014)
Like-named read-outs stand apart in the source and are kept apart here.

What was measured:
[1] = biological target: human MDR1-encoded P-gp (L-MDR1 cells) (Homo sapiens, UniProt P08183); test: Uptake (intracellular concentration) of digoxin and ginsenosides in L-MDR1 cells; format: in vitro ADME
Description: LLC-PK1 cells, a cell line lacking P-gp, and the derived cell line L-MDR1, which over-express human MDR1-encoded P-gp, were grown in minimum essential medium with supplements at 37°C, 5% CO2, and 95% humidity. LLC-PK1 and L-MDR1 cells were seeded at a density of 12×10^6 cells per 150-cm^2 flask and grown for 7 days in medium 199 supplemented with 2 mM glutamine, 10% fetal bovine serum, 10 mg/500 mL of streptomycin, and 10,000 IU/500 mL of penicillin. To ensure a constant expression level of transport protein, L-MDR1 cells were grown in the presence of 640 nM vincristine. Cells were grown as monolayer on polycarbonate membrane filters (Transwell; Costar Corporation, Cambridge, MA) as outlined previously. Transepithelial resistance was measured in each well using a Millicell ERS ohmmeter (Millipore, Bedford, MA); wells registering a resistance of 200 ohms or greater, after correcting for the resistance obtained in control blank wells, were used in the transport experiments.
LLC-PK1 and L-MDR1 cells were incubated with SLE (2.0 and 10.0 µg/mL) or verapamil (10 µM) for 1.0 h, and then were washed to discard SLE or verapamil before adding 100 µg/mL of GE. The accumulation of GE lasted for 2 h, and the intracellular concentrations of ginsenosides were measured by LC/MS. All experiments were conducted in triplicate.

[2] = Rat plasma pharmacokinetics after single-dose vehicle/SLE and digoxin or GE; format: in vivo, Sprague-Dawley rats; details: rats; for half-life / AUC / Cmax / AUC(0-inf) / MRT inf / Tmax: female, Sprague-Dawley, rat, plasma, po; for half-life / AUC / Cmax / AUC(0-inf) / MRT inf / Tmax / AUCINF_obs / Cl_F_obs: 2 h later digoxin 0.5 mg/kg or GE 120 mg/kg ig; for half-life: read-out: t1/2 (converted); for AUC(0-inf): read-out: AUCINF_obs; for MRT inf: read-out: MRTINF_obs; for Tmax: read-out: Tmax; for Effect of SLE treatment on Cmax / Increase of AUC (AUC0-∞) by coadministration of SLE: single-dose SLE 500 mg/kg vs vehicle, GE ig
Description: This study was carried out in strict accordance with the recommendations in the Guide for the Care and Use of Laboratory Animals of the National Institutes of Health. The protocol was approved by the Committee on the Ethics of Animal Experiments of the China Pharmaceutical University. All surgery was performed under sodium pentobarbital anesthesia, and all efforts were made to minimize suffering. Female healthy Sprague-Dawley rats (200±20 g) were purchased from the Laboratory Animal Center of Peking University Health Science Center (Beijing, PR China) and kept in an environmentally controlled breeding room for at least 3 days before experimentation. The rats were fed with standard laboratory food and water and fasted overnight but with free access to water before the test. To evaluate the effect of single treatment of SLE on the pharmacokinetics of ginsenosides, 24 rats were divided into four groups (group I ∼ group IV) averagely. […] In group II (control group): the rats received a single dose of vehicle (0.5% CMC-Na), and digoxin (0.5 mg/kg) was also given to the rats by intragastric administration. […] In group IV (control group): the rats received a single dose of vehicle (0.5% CMC-Na), and GE (120 mg/kg) was also given to the rats by gavage. […] Plasma was obtained by centrifugation at 5000 g for 10 min and stored at −20°C before analysis. The plasma / cell samples were extracted using a liquid–liquid extraction technique. To each tube containing 100 µL plasma, 10 µL internal standard (digoxin, 1.0 µg/mL) and 1.0 mL of n-butanol were added. The mixture was then vortex-extracted for 2 min, and centrifuged for 10 min at 10,000 g. […] The plasma concentration-time curves of ginsenosides in rats were obtained by plotting the mean plasma concentrations versus time. Pharmacokinetic parameters were calculated using the WinNonlin 6.3 program (Pharsight Inc., Mountain View, CA). The elimination half-life (t 1/2) value was calculated as 0.693/β, where β is the elimination rate constant calculated from the terminal linear portion of the log plasma concentration-time curve. The total areas under the plasma concentration- time curve from time 0 to the last quantifiable time point (AUC0-t) and from time 0 to infinity (AUC0-∞) were calculated using the log trapezoidal rule. [drawing 3] The maximum plasma concentrations (C max) for ginsenosides were obtained by visual inspection of the plasma concentration-time curve, whereas the initial drug concentration (the extrapolated concentration at zero time) of the drug after intravenous injection was calculated by back-extrapolation of the plasma concentration-time curve to the y-axis.

[3] = Transport of digoxin and ginsenosides across Caco-2 cell monolayer (efflux ratio); format: in vitro ADME, human; details: human, pH 7.4; Caco-2 cell monolayer, absence of inhibitor, GE 100 µg/mL; read-out: Efflux ratio
Description: Caco-2 cells were purchased from American Type Culture Collection (Manassas, VA), and were routinely cultured in Dulbecco's modified Eagle's medium supplemented with 10% fetal bovine serum, 1% nonessential amino acids, 1 mM sodium pyruvate, and 100 U/mL penicillin and streptomycin (Invitrogen, Carlsbad, CA). The cells were grown in an atmosphere of 5% CO2 at 37°C, and cell medium was changed every other day. Cells were seeded at a density of 4×10^4 cells per well in 24-well microporous polycarbonate insert filter plates (0.4-µm pore size) (Corning Costar plates; Corning Life Sciences, Lowell, MA) and grown for 15 days in Caco-2 growth medium. The medium was replaced every 3 to 4 days. Before running the assay, the culture medium was replaced by HBSS buffer supplemented with 10 mM Hepes and 20 mM glucose.
Caco-2 cells with a density of 1.2×10^5 cells/insert were seeded on a permeable polycarbonate insert (Millicell cell culture inserts, 0.4 µm pore size, 12 mm diameter; Millipore Corporation) in 24-well tissue culture plates and were used for the experiment 18 to 21 days after seeding. [^14C]Mannitol permeability and transepithelial electrical resistance measurements (Millicell-ERS epithelial volt-ohm meter; Millipore Corporation) were used to evaluate the integrity of Caco-2 cell monolayer. The monolayer used in transport studies had transepithelial electrical resistance values exceeding 600 Ω·cm^2, and the leakage of mannitol was less than 0.3% of the dose/h. Before transport initiation studies, the cell monolayer was first washed with warm HBSS (pH 7.4) twice. HBSS containing SLE (2.0 and 10.0 µg/mL) or 1% ethanol (control) was then loaded into both apical and basolateral chambers. After incubation at 37°C for 1.5 h, 100 µg/mL of GE was added to either the apical or basolateral side to evaluate the transport in absorptive and secretory directions, and the cell monolayer was incubated for another 2 h. 10 µM verapamil was used as a positive control inhibitor. At the designated time point, samples were taken from the receiving chamber for analysis. Ginsenosides were determined by LC-MS. All experiments were conducted in triplicate.
For the transport assay, the apparent permeability (P app, cm/s) in each direction (A→B and B→A) was calculated as follows, where A is the surface area of the membrane inserts (0.0804 cm^2), C 0 is the initial concentration of the compound applied in the donor compartment (2 µM), and △Q is the amount (micromoles) of compound transported over time △t (5 h = 18,000 s): [drawing 1]
The efflux ratio (ER) was a dimensionless number calculated as the ratio of the apparent permeability in the B→A direction divided by the apparent permeability in the A→B direction. [drawing 2]

[4] = control: single vehicle (0.5% sodium CMC)

Chain of human MDR1-encoded P-gp (L-MDR1 cells) (P08183 whole entry): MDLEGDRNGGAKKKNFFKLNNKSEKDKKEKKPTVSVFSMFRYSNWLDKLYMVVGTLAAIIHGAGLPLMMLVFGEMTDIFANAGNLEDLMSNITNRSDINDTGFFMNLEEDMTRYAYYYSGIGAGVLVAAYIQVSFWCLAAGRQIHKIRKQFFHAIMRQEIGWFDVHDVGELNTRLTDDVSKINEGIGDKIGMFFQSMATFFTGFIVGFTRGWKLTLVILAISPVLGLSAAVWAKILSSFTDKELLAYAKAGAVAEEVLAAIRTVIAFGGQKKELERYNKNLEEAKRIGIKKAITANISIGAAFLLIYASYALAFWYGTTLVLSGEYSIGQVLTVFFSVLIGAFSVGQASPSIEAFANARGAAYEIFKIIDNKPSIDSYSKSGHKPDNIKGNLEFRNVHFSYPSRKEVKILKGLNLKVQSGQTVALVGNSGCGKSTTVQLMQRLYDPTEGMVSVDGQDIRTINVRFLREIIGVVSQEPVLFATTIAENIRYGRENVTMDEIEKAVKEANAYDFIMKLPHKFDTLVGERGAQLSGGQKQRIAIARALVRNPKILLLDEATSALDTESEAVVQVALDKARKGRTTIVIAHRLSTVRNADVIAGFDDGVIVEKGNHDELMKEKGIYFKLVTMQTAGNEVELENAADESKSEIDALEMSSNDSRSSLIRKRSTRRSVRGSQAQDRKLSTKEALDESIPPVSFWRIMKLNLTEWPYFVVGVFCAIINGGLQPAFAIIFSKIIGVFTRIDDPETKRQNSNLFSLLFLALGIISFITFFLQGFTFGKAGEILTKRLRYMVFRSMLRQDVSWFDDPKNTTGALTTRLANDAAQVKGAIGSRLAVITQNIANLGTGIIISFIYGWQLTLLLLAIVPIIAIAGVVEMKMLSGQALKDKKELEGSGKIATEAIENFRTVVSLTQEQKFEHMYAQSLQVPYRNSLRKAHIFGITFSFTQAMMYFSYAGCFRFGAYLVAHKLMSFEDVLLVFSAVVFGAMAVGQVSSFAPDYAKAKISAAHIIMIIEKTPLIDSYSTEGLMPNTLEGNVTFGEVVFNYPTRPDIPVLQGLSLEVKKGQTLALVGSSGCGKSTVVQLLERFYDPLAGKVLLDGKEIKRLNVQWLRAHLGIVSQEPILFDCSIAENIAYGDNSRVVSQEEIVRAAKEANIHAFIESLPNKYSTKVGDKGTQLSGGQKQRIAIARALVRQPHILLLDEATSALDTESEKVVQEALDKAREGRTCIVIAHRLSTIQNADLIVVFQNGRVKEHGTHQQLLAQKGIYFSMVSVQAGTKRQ

## CC(C)=CCC[C@](C)(O[C@@H]1O[C@H](CO[C@@H]2OC[C@H](O)[C@H](O)[C@H]2O)[C@@H](O)[C@H](O)[C@H]1O)[C@H]1CC[C@]2(C)[C@@H]1[C@H](O)C[C@@H]1[C@@]3(C)CC[C@H](O[C@@H]4O[C@H](CO)[C@@H](O)[C@H](O)[C@H]4O[C@@H]4O[C@H](CO)[C@@H](O)[C@H](O)[C@H]4O)C(C)(C)[C@@H]3CC[C@]12C [Rb2, ginsenoside Rb2]
[1]; 2.0 µg/mL SLE
  Increase of intracellular concentration by SLE: 2.0 fold
[1]; 10.0 µg/mL SLE
  Increase of intracellular concentration by SLE: 3.7 fold
[2]; [4]
  half-life: 19.4 ± 2.87 h
[2]; control: single vehicle
  AUC: 10200 ± 1710 ng·h/mL
  Cmax: 330 ± 70.9 ng/mL
  AUC(0-inf): 10600 ± 1730 ng·h/mL
  MRT inf: 27.9 ± 4.2 h
  Tmax: 7 ± 2 h
  AUCINF_obs: 10551 ± 1728 ng·h/mL
  Cl_F_obs: 0.012 ± 0.003 L/h
[2]; single SLE 500 mg/kg ig
  AUC: 22300 ± 5270 ng·h/mL
  Cmax: 541 ± 45 ng/mL
  AUC(0-inf): 23200 ± 5570 ng·h/mL
  MRT inf: 25.2 ± 3.63 h
  Tmax: 9.5 ± 3 h
  half-life: 19 ± 3.84 h
  AUCINF_obs: 23198 ± 5566 ng·h/mL
  Cl_F_obs: 0.004 ± 0.001 L/h
[2]
  Effect of SLE treatment on Cmax: significantly enhanced
  Increase of AUC (AUC0-∞) by coadministration of SLE: 2.18 fold

## CC(C)=CCC[C@](C)(O[C@@H]1O[C@H](CO[C@@H]2O[C@H](CO)[C@@H](O)[C@H](O)[C@H]2O)[C@@H](O)[C@H](O)[C@H]1O)[C@H]1CC[C@]2(C)[C@@H]1[C@H](O)C[C@@H]1[C@@]3(C)CC[C@H](O[C@@H]4O[C@H](CO)[C@@H](O)[C@H](O)[C@H]4O[C@@H]4O[C@H](CO)[C@@H](O)[C@H](O)[C@H]4O)C(C)(C)[C@@H]3CC[C@]12C [Rb1, ginsenoside Rb1]
[3]
  efflux ratio at 2 h, 100 µg/mL: 3.77
[1]; 2.0 µg/mL SLE
  Increase of intracellular concentration by SLE: 2.9 fold
[1]; 10.0 µg/mL SLE
  Increase of intracellular concentration by SLE: 5.1 fold
[2]; [4]
  half-life: 13.3 ± 2.43 h
[2]; control: single vehicle
  AUC: 14300 ± 2380 ng·h/mL
  Cmax: 491 ± 61.4 ng/mL
  AUC(0-inf): 14400 ± 2470 ng·h/mL
  MRT inf: 23.1 ± 4.31 h
  Tmax: 7.5 ± 1 h
  Cl_F_obs: 0.007 ± 0.001 L/h
[2]; single SLE 500 mg/kg ig
  AUC: 18500 ± 5780 ng·h/mL
  Cmax: 651 ± 127 ng/mL
  AUC(0-inf): 18500 ± 5730 ng·h/mL
  MRT inf: 23.5 ± 2.68 h
  Tmax: 11 ± 2 h
  half-life: 11.3 ± 2.74 h
  Cl_F_obs: 0.006 ± 0.002 L/h
[2]
  Effect of SLE treatment on Cmax: significantly enhanced
  Increase of AUC (AUC0-∞) by coadministration of SLE: 1.29 fold

## C[C@H]1O[C@@H](O[C@H]2[C@@H](O)C[C@H](O[C@H]3[C@@H](O)C[C@H](O[C@H]4CC[C@@]5(C)[C@H](CC[C@@H]6[C@@H]5C[C@@H](O)[C@]5(C)[C@@H](C7=CC(=O)OC7)CC[C@]65O)C4)O[C@@H]3C)O[C@@H]2C)C[C@H](O)[C@@H]1O [Digoxin, digoxin, reference compound]
[3]
  efflux ratio at 2 h, 100 µg/mL: 3.23
[1]; 2.0 µg/mL SLE
  Increase of intracellular concentration by SLE: 2.7 fold
[1]; 10 µM verapamil, P<0.05
  Enhancement of uptake level by verapamil: 3.2 fold
[1]; 10.0 µg/mL SLE
  Increase of intracellular concentration by SLE: 3.6 fold
[2]; [4]
  half-life: 3.08 ± 1.23 h
[2]; control: single vehicle
  AUC: 61.8 ± 13.4 ng·h/mL
  Cmax: 15 ± 5.07 ng/mL
  AUC(0-inf): 67.5 ± 13.4 ng·h/mL
  MRT inf: 5.15 ± 1.09 h
  Tmax: 1.28 ± 0.36 h
  Cl_F_obs: 7.66 ± 1.53 L/h
[2]; single SLE 500 mg/kg ig
  AUC: 84.4 ± 7.25 ng·h/mL
  Cmax: 17.5 ± 2.26 ng/mL
  AUC(0-inf): 91 ± 8.39 ng·h/mL
  MRT inf: 5.06 ± 0.42 h
  Tmax: 1.58 ± 0.38 h
  half-life: 2.98 ± 0.36 h
  Cl_F_obs: 5.53 ± 0.48 L/h

## CC(C)=CCC[C@](C)(O[C@@H]1O[C@H](CO)[C@@H](O)[C@H](O)[C@H]1O)[C@H]1CC[C@]2(C)[C@@H]1[C@H](O)C[C@@H]1[C@@]3(C)CC[C@H](O[C@@H]4O[C@H](CO)[C@@H](O)[C@H](O)[C@H]4O[C@@H]4O[C@H](CO)[C@@H](O)[C@H](O)[C@H]4O)C(C)(C)[C@@H]3CC[C@]12C [Rd, ginsenoside Rd]
[3]
  efflux ratio at 2 h, 100 µg/mL: 4.47
[1]; 2.0 µg/mL SLE
  Increase of intracellular concentration by SLE: 2.9 fold
[1]; 10.0 µg/mL SLE
  Increase of intracellular concentration by SLE: 4.3 fold
[2]; [4]
  half-life: 75.4 ± 42.7 h
[2]; control: single vehicle
  AUC: 5350 ± 1400 ng·h/mL
  Cmax: 237 ± 79 ng/mL
  AUC(0-inf): 7410 ± 2180 ng·h/mL
  MRT inf: 21.6 ± 49 h
  Tmax: 7.5 ± 1 h
  Cl_F_obs: 0.014 ± 0.003 L/h
[2]; single SLE 500 mg/kg ig
  AUC: 7960 ± 2000 ng·h/mL
  Cmax: 227 ± 57.8 ng/mL
  AUC(0-inf): 9040 ± 2200 ng·h/mL
  MRT inf: 25.1 ± 7.45 h
  Tmax: 7.5 ± 1 h
  half-life: 21.8 ± 6.78 h
  Cl_F_obs: 0.011 ± 0.003 L/h
[2]
  Effect of SLE treatment on Cmax: not dramatically changed
  Increase of AUC (AUC0-∞) by coadministration of SLE: 1.86 fold
